The test system of one assay is Hsp27. Description: Western blot of Hsp27 in kidney tissue lysates. The assay is classed as in vivo, mouse. As to conditions: cyst induced pkd−/− mice, VX-809 30 mg/kg BW. Here is the method:
FIG. 7A, FIG. 7B, FIG. 7C, FIG. 7D, FIG. 7E, and FIG. 7F show chaperone expression is altered in mice by VX-809. (FIG. 7A-FIG. 7B) Representative Western blot images of HSP27, 70, 90 and HSP40 in lysates of kidney tissue from no cyst induced (ND), cyst induced with Doxycycline (D) or cyst induced pkd−/− mice treated with VX-809 (D+VX-809) 30 mg/kg BW. (FIG. 7C, FIG. 7D, FIG. 7E, and FIG. 7F) Columns represent averages±standard errors of HSP27, 70, 90 and HSP40 expression. Data were analyzed by non-parametric t-test. n=4 for each treated and control groups. Black lines between lanes represent representative experiments from the same gel. *P<0.05; **P<0.01; To facilitate their growth in the kidney, cysts have developed an altered network of proteins that most likely serves to protect them from stress (34). Next, it was determined whether VX-809 would alter the levels of Hsps in pkd−/− mice and in PN cells. […] Hsp 27, 70 and 90 are all elevated in cystic kidneys compared to normal controls. […] There is no change in Hsp 40. […] Both sets of data are consistent with an alteration in the heat shock response to cyst growth.
For orientation: A western blot detects proteins with antibodies after separation by electrophoresis.

The test system of another assay is Ero1. Description: Western blot of ER stress marker Ero1 in kidney tissue. In kind it is in vivo, mouse. As to conditions: cyst induced pkd−/− mice, VX-809 30 mg/kg BW. As for the experimental part:
FIG. 11A. FIG. 11B, FIG. 11C, FIG. 11D, and FIG. 11E show expression of ER stress markers GRP78, ErO1, and GADD in Pkd1^−/− mice treated with VX-809. (FIG. 11A & FIG. 11D) Representative Western blot images of GRP78, ErO1, and GADD in lysates of kidney tissue from no cyst induced (ND), cyst induced with doxycycline (D) or cyst induced pkd−/− mice treated with VX-809 (D+VX-809) 30 mg/kg BW. (FIG. 11B, FIG. 11C and FIG. 11E) Columns represent averages±standard errors of GRP78, ErO1, and GADD153 expression. Data were analyzed by non-parametric t-test. n=4 for each treated and control groups. Black lines between lanes represent representative experiments from the same gel but loaded in different lanes. **P<0.01, ***P<0.001;
Given that VX-809 alters an ensemble of Hsps, it was evaluated whether VX-809 alters proteins associated with ER stress. To address this question, the levels of three ER stress-associated proteins were measured, 78-kDa glucose-regulated protein (GRP78), ER oxidoreductin 1 (Ero1) and DNA damage-inducible protein 3 (GADD153), also known as C/EBP homologous protein (CHOP) (37). The results are depicted in FIG. 11 show no changes in GRP78 or Ero1 in response to VX-809.

For the next assay, the system named is Hsp90. In words: Cycloheximide chase, disappearance of Hsp90 in PN cells. The assay is classed as cell-based, mouse. Particulars: VX-809 10 μM with cycloheximide 25 μM. As for the experimental part:
(§1) FIG. 9A, FIG. 9B, FIG. 9C, FIG. 9D, FIG. 9E, FIG. 9F, FIG. 9G, and FIG. 9H show Hsp27, HSp70, and Hsp90 expression in PN cells treated with VX-809 and/or cycloheximide. (A) Pkd1 null (PN) cells were treated with VX-809 (10 μM) and/or with cycloheximide (25 μM) for indicated time points before being harvested for the assay. (FIG. 9A) Western blot showing expression of Hsp27, Hsp70, and Hsp90 in VX-809-(16 h), cycloheximide-treated, or control PN cells. ((FIG. 9B. (FIG. 9C, and (FIG. 9D) Columns represent averages±standard errors of Hsp27, Hsp70, and Hsp90 expression in cells treated with VX-809 and/or cycloheximide. ((FIG. 9E) Western blot showing expression of Hsp27, Hsp70, and Hsp90 in PN cells treated with VX-809+cycloheximide or control PN cells. ((FIG. 9F, (FIG. 9G, and (FIG. 9H) Columns represent averages±standard errors of Hsp27, Hsp70, and Hsp90 expression in cells treated only with cycloheximide or in control PN cells. Data were analyzed by non-parametric t-test. The experiments were repeated 3-5 times. *P<0.05, **P<0.01;
(§2) To gain more insight into the mechanism whereby VX-809 alters Hsp protein levels, translation was inhibited by using cycloheximide (35) and the disappearance of the three Hsps was monitored. […] Hsp 90 was reduced by approximately 25%, and Hsp27 was unchanged.

The test system of a further assay is Hsp70. In words: Cycloheximide chase, disappearance of Hsp70 in PN cells. As to conditions: VX-809 10 μM with cycloheximide 25 μM. The assay is classed as cell-based, mouse. Here is the method:
as §1, §2

The next assay deals with NHE3. Description: NHE3 expression in PN cells. The assay is classed as cell-based, mouse. Particulars: PN cells treated with VX-809 vs PN cells. Here is the method: FIG. 14A and FIG. 14B show NHE3 expression in PN cells treated with VX-809.
The expression and activity of […] were evaluated. Specifically, NHE3 expression was evaluated in PN cells that were treated with VX-809. […] was also studied in PN, PH, and PN cells treated with VX-809. […] Next, NHE3 activity was evaluated in PN/PH cells or PN cells treated with VX-809. NHE3 activity was increased in PN cells treated with VX-809, as compared to PN cells (FIG. 16A). NHE3 activity was higher in control PH cells than in PN cells (FIG. 16B). […] NHE3 activity was increased in both VX-809 treated PN cells and control PH cells, as compared to control PN cells (FIG. 16C).

In the next assay the target is CFTR (Mus musculus, UniProt P26361). Description: CFTR expression in PN cells. In kind it is cell-based. On the set-up: endogenous in cells; host or cells: PN (Pkd1-null mouse proximal tubule) cells. As to conditions: 10 μM VX-809 for 16 h vs control PN cells. Here is the method:
FIG. 19A, FIG. 19B, FIG. 19C, and FIG. 19D show CFTR expression in PN cells treated with VX-809 (10 μM) for 16 h.
The expression of CFTR was evaluated in PN cells treated with VX-809 and control PN cells. PN cells were treated with 10 μM VX-809 for 16 h or a control.

Sequence of CFTR (P26361 whole entry): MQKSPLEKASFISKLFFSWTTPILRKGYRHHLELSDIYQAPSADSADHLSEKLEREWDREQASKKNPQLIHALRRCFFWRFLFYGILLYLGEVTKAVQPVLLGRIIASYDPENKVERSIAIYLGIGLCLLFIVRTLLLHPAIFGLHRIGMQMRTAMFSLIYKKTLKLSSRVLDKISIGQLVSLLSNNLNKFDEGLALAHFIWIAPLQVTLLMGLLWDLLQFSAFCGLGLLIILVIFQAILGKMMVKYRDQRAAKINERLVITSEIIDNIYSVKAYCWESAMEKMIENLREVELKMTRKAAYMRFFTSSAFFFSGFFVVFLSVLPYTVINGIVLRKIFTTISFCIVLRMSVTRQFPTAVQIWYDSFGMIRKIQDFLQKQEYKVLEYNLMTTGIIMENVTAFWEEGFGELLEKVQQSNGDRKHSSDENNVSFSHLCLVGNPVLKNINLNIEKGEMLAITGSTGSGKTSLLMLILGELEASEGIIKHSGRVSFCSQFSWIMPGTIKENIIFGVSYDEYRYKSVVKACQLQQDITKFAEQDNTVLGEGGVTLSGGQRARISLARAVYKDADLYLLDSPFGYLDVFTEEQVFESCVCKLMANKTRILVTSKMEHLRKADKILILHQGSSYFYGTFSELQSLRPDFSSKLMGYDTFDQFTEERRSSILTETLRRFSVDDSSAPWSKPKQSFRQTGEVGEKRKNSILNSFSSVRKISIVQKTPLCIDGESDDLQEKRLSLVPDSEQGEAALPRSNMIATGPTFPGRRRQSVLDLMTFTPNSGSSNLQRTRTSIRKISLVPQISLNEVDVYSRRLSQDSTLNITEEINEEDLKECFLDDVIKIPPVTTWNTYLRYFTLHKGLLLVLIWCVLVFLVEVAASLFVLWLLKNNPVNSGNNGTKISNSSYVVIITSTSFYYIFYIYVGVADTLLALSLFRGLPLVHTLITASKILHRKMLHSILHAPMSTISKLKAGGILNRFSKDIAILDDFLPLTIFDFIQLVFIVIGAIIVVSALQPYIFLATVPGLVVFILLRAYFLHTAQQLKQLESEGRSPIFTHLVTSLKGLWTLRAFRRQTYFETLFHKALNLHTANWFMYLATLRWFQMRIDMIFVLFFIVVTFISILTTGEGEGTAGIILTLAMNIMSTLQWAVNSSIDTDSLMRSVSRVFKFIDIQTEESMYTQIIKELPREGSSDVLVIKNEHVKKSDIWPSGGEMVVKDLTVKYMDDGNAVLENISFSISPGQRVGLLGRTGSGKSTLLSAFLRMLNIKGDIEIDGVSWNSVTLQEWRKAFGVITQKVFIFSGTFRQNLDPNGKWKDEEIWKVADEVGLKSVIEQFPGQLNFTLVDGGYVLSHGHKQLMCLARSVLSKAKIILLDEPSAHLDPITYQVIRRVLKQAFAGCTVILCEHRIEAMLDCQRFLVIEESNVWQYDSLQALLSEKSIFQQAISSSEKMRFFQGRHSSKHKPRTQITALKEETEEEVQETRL

On to lumacaftor [VX-809], for which the “Hsp27 expression in kidneys” value in the assay with Hsp27 is “significantly less expression”. In addition, the Ero1 expression result in the assay with Ero1 is listed as “no changes”. Besides, the “Hsp 90 reduction over the 8-h period” value with Hsp90 is recorded as “approximately 25%”. Besides, the “Hsp70 levels over the 8-h period relative to time 0” value in the assay on Hsp70 is on record as “approximately half the level observed at time 0”. Further, the NHE3 expression entry with NHE3 is reported as “significantly increased”. Further, on CFTR, the CFTR expression entry is “enhanced CFTR expression”.

Source of the values: patent US20200289482A1, “CYSTIC FIBROSIS TRANSMEMBRANE CONDUCTANCE REGULATOR MODULATORS FOR TREATING AUTOSOMAL DOMINANT POLYCYSTIC KIDNEY DISEASE” (The Johns Hopkins University, priority 2017, published 2020).
